# Test system: angiogenesis from the choroid plexus
# Test: Laser-induced angiogenesis from the choroid plexus (AMD model), administration into the vitreous body
# Assay type: in vivo, mouse
# Details: for suppressive effect on AMD onset (FIG. 2): figure legend FIG. 2, old mice, administration into vitreous body after laser irradiation
# Excerpt: Laser light (power: 200 mW, exposure time: 0.10 seconds, wavelength: 532 nm) was irradiated in 4 to 5 spots onto male young (8 to 12 weeks) and old (44 to 48 weeks) BLT1^+/+ mice and BLT1^−/− mice, and after 7 days, the eyes were isolated and fixed using a phosphate buffered saline (PBS) containing 4% paraformaldehyde (PFA), the cornea, lens, and retina were removed, and then fixed again using 4% PFA/PBS. The ocular tissue containing the retinal pigment epithelia and choroid plexus were immersed in PBS containing methanol in order of 50%, 75%, 100%, 75%, 50%, and 25% to remove water, and then incubated at 4° C. for 1 hour in a blocking solution (1% bovine blood serum albumin, phosphate buffered saline containing 0.1% Triton X-100), and then stained overnight at 4° C. using isolectin B4 (IB4, […]) labeled with FITC. Incisions were made in the samples and the samples were molded on a slide glass, sealed with a mounting agent containing an antifading reagent, and then a cover glass was placed thereon to produce a flat mount. A three-dimensional IB4 positive blood vessels image was captured using a confocal microscope, and the volume of angiogenesis that occurred in each mouse was measured.
# Immediately after laser light irradiation of C57BL/6 background old mice purchased (Japan SLC, wild mice, 40 weeks or older, male), DMSO (final: 0.1%, diluted with PBS), CP105696 (where in the formula (1), R^1=phenyl and R^2=1-carboxycyclopentyl group) which is a BLT1 antagonist, or zileuton, bestatin, or MK886 each of which is an inhibitor for LTB4 production-related enzyme was administered into a vitreous body of each mouse. Similar to Test Example 1, angiogenesis from the choroid plexus was evaluated 7 days after laser irradiation.
structure (smiles),measurement,setting,value
"CC(C)C[C@H](NC(=O)[C@@H](O)[C@H](N)Cc1ccccc1)C(=O)O [bestatin, N-[(2S,3R)-3-amino-2-hydroxy-4-phenylbutyryl]-L-leucine]",suppressive effect on AMD onset (FIG. 2),,suppressive effect
"O=C(O)C1(c2ccc3c(c2)OC[C@H](Cc2ccc(-c4ccccc4)cc2)[C@H]3O)CCCC1 [CP 105696, 1-[(3S,4R)-4-hydroxy-3-[(4-phenylphenyl)methyl]chroman-7-yl]cyclopentane-1-carboxylic acid]",angiogenesis volume,"C57BL/6 background old mice (40 weeks or older, male), administered into vitreous body immediately after laser irradiation, evaluated 7 days after laser irradiation",significantly reduced in a concentration-dependent manner
same,suppressive effect on AMD onset (FIG. 2),,suppressive effect
"CC(c1cc2ccccc2s1)N(O)C(N)=O (centres unmarked) [zileuton, N-[1-(1-benzothien-2-yl)ethyl]-N-hydroxyurea]",suppressive effect on AMD onset (FIG. 2),,suppressive effect
CC(C)c1ccc2c(c1)c(SC(C)(C)C)c(CC(C)(C)C(=O)O)n2Cc1ccc(Cl)cc1 [MK886],suppressive effect on AMD onset (FIG. 2),,suppressive effect
